ChEMBL document CHEMBL5131559, “Discovery and Preclinical Profiling of GSK3839919, a Potent HIV-1 Allosteric Integrase Inhibitor” (ACS Med Chem Lett, 2022)

What was measured:
[1] = Clearance in CD-1 mouse at 1 mg/kg, iv by LC-MS/MS analysis; type: ADME, organism-based; conditions: in vivo
[2] = test system: Human immunodeficiency virus 1; assay: Antiviral activity against recombinant HIV1 NLRep-Rluc harbouring polymorphic T124/T125 integrase infected in human MT-2 cells assessed as inhibition of virus growth in presence of fetal bovine serum by measuring luciferase activity after 4 days; type: functional, organism-based; conditions: Human immunodeficiency virus 1, NLRep, MT2, 96 h
[3] = test system: Human immunodeficiency virus 1; assay: Antiviral activity against recombinant HIV1 NLRep-Rluc harbouring polymorphic N124/A125 integrase infected in human MT-2 cells assessed as inhibition of virus growth in presence of fetal bovine serum by measuring luciferase activity after 4 days; type: functional, organism-based; conditions: Human immunodeficiency virus 1, NLRep, MT2, 96 h
[4] = Cytotoxicity against human MT2 cells; type: toxicity, cell-based
[5] = Clearance in cynomolgus monkey at 1 mg/kg, iv by LC-MS/MS analysis; type: ADME, organism-based, Macaca fascicularis; conditions: in vivo
[6] = Clearance in Sprague-Dawley rat at 1 mg/kg, iv by LC-MS/MS analysis; type: ADME, organism-based; conditions: in vivo
[7] = AUC (0 to infinity) in Sprague-Dawley rat at 5 mg/kg, po by LC-MS/MS analysis; type: ADME, organism-based; design: time infinity, dose 5 mg/kg, route po; conditions: in vivo
[8] = Oral bioavailability in Sprague-Dawley rat at 5 mg/kg by LC-MS/MS analysis; type: ADME, organism-based; conditions: in vivo
[9] = test system: Human immunodeficiency virus 1; assay: Antiviral activity against recombinant HIV1 NLRep-Rluc harbouring polymorphic A124/T125 integrase infected in human MT-2 cells assessed as inhibition of virus growth in presence of fetal bovine serum by measuring luciferase activity after 4 days; type: functional, organism-based; conditions: Human immunodeficiency virus 1, NLRep, MT2, 96 h
[10] = test system: Human immunodeficiency virus 1; assay: Antiviral activity against recombinant HIV1 NLRep-Rluc harbouring polymorphic T124/A125 integrase infected in human MT-2 cells assessed as inhibition of virus growth in presence of fetal bovine serum by measuring luciferase activity after 4 days; type: functional, organism-based; conditions: Human immunodeficiency virus 1, NLRep, MT2, 96 h
[11] = test system: Human immunodeficiency virus 1; assay: Antiviral activity against recombinant HIV1 NLRep-Rluc harbouring polymorphic N124/T125 integrase infected in human MT-2 cells assessed as inhibition of virus growth in presence of fetal bovine serum by measuring luciferase activity after 4 days; type: functional, organism-based; conditions: Human immunodeficiency virus 1, NLRep, MT2, 96 h
[12] = test system: Human immunodeficiency virus 1; assay: Antiviral activity against recombinant HIV1 NLRep-Rluc harbouring polymorphic A124/A125 integrase infected in human MT-2 cells assessed as inhibition of virus growth in presence of fetal bovine serum by measuring luciferase activity after 4 days; type: functional, organism-based; conditions: Human immunodeficiency virus 1, NLRep, MT2, 96 h
[13] = test system: Human immunodeficiency virus 1; assay: Antiviral activity against recombinant HIV1 NLRep-Rluc harbouring polymorphic T124/V125 integrase infected in human MT-2 cells assessed as inhibition of virus growth in presence of fetal bovine serum by measuring luciferase activity after 4 days; type: functional, organism-based; conditions: Human immunodeficiency virus 1, NLRep, MT2, 96 h
[14] = AUC (0 to infinity) in CD-1 mouse at 5 mg/kg, po by LC-MS/MS analysis; type: ADME, organism-based; design: time infinity, dose 5 mg/kg, route po; conditions: in vivo
[15] = Oral bioavailability in CD-1 mouse at 5 mg/kg by LC-MS/MS analysis; type: ADME, organism-based; conditions: in vivo
[16] = Clearance in Beagle dog at 1 mg/kg, iv by LC-MS/MS analysis; type: ADME, organism-based, Canis lupus familiaris; conditions: in vivo
[17] = AUC (0 to infinity) in Beagle dog at 2 mg/kg, po by LC-MS/MS analysis; type: ADME, organism-based, Canis lupus familiaris; design: time infinity, dose 2 mg/kg, route po; conditions: in vivo
[18] = Oral bioavailability in Beagle dog at 2 mg/kg by LC-MS/MS analysis; type: ADME, organism-based, Canis lupus familiaris; conditions: in vivo
[19] = AUC (0 to infinity) in cynomolgus monkey at 2 mg/kg, po by LC-MS/MS analysis; type: ADME, organism-based, Macaca fascicularis; design: time infinity, dose 2 mg/kg, route po; conditions: in vivo
[20] = Oral bioavailability in cynomolgus monkey at 2 mg/kg by LC-MS/MS analysis; type: ADME, organism-based, Macaca fascicularis; conditions: in vivo
[21] = Toxicity in human Huh-7 cells assessed as fold change in lipid droplet count at 10 uM incubated for 48 hrs by plate reader assay; type: cell-based; conditions: huh-7, 48 h
[22] = Toxicity in rat Hepatoma cell line assessed as fold change in lipid droplet count at 10 uM incubated for 48 hrs by plate reader assay; type: cell-based
[23] = Toxicity in human Huh-7 cells assessed as fold change in lipid droplet count at 20 uM incubated for 48 hrs by plate reader assay; type: cell-based; conditions: hepatoma cell line
Huh-7 = assay: Cytotoxicity against human Huh-7 cells at 40 to 80 uM; type: toxicity, cell-based; conditions: huh-7, 80 µM, dose 40-80 µM
Hepatoma cell line = assay: Cytotoxicity against rat Hepatoma cell line at 40 to 80 uM; type: toxicity, cell-based; conditions: dose 40-80 µM
[24] = Cmax in rat at 50 mg/kg,po qd for 1 week; type: ADME, organism-based; design: time 1 weeks, dose 50 mg/kg, route po; conditions: in vivo
[25] = Toxicity in rat assessed as hepatocellular vacuolation at 50 mg/kg,po for 1 week; type: organism-based; conditions: in vivo, 168 h, time 1 weeks
[26] = Toxicity in rat assessed as increase in alkaline phosphatase level at 50 mg/kg,po for 1 week; type: organism-based; conditions: in vivo, 168 h, time 1 weeks
[27] = Toxicity in dog assessed as hepatocellular vacuolation at 60 mg/kg,po for 1 week; type: organism-based, Canis lupus familiaris; conditions: in vivo, 168 h, time 1 weeks
[28] = Toxicity in dog assessed as increase in alkaline phosphatase level at 60 mg/kg,po for 1 week; type: organism-based, Canis lupus familiaris; conditions: in vivo, 168 h, time 1 weeks

Cc1cccc(Cl)c1CN1CCc2cc(-c3cnc(C)c([C@H](OC(C)(C)C)C(=O)O)c3N3CCC(C)(C)CC3)ccc2C1
clearance [1]: 1 mL/min/kg | EC50 [2]: 2.8 nM | EC50 [3]: 5.7 nM | CC50 [4]: 19.5 µM | clearance [5]: 1.7 mL/min/kg | clearance [6]: 3.8 mL/min/kg | AUC(0-inf) [7]: 21.6 µM·h | bioavailability [8]: 71% | EC50 [9]: 4.5 nM | EC50 [10]: 5 nM | EC50 [11]: 3.1 nM | EC50 [12]: 4.6 nM | EC50 [13]: 1.6 nM | AUC(0-inf) [14]: 43.1 µM·h | bioavailability [15]: 47% | clearance [16]: 2.2 mL/min/kg | AUC(0-inf) [17]: 24.2 µM·h | bioavailability [18]: 89% | AUC(0-inf) [19]: 10.7 µM·h | bioavailability [20]: 51% | fold change (FC) [21]: 1.2 | fold change (FC) [22]: 1.8 | fold change (FC) [23]: 3.7 | Activity (Huh-7): Toxic | Activity (Hepatoma cell line): Toxic | Cmax [24]: 488 µM | Activity [25]: Toxic | Activity [26]: Toxic | Activity [27]: Toxic | Activity [28]: Toxic
